Assay results published in ChEMBL document CHEMBL1156616, “Syntheses and biological evaluation of topoisomerase I-targeting agents related to 11-[2-(N,N-dimethylamino)ethyl]-2,3-dimethoxy-8,9-methylenedioxy-11H-isoquino[4,3-c]cinnolin-12-one (ARC-31)” (Bioorg Med Chem, 2008).

Experiments:
[1] = Cytotoxicity against human camptothecin-resistant CPT-K5 cells after 4 days by MTT assay; type: functional, cell-based; conditions: CPT-K5, 96 h
[2] = Cytotoxicity against human RPMI8402 cells after 4 days by MTT assay; type: functional, cell-based; conditions: RPMI 8402, 96 h
[3] = Cytotoxicity against human multidrug resistant BCRP overexpressing human KBH5.0 cells after 4 days by MTT assay; type: functional, cell-based; conditions: KBH5.0 cell, 96 h
[4] = Cytotoxicity against human KB3-1 cells after 4 days by MTT assay; type: functional, cell-based; conditions: KB 3-1, 96 h
[5] = Cytotoxicity against human multidrug resistant MDR1 overexpressing human KBV1 cells after 4 days by MTT assay; type: functional, cell-based; conditions: KB-V1, 96 h
[6] = biological target: T1, DNA topoisomerase 1 (Homo sapiens) (UniProt P11387); assay: Inhibition of human topoisomerase 1 expressed in Escherichia coli assessed as YepG plasmid DNA cleavage
T1 sequence (whole entry): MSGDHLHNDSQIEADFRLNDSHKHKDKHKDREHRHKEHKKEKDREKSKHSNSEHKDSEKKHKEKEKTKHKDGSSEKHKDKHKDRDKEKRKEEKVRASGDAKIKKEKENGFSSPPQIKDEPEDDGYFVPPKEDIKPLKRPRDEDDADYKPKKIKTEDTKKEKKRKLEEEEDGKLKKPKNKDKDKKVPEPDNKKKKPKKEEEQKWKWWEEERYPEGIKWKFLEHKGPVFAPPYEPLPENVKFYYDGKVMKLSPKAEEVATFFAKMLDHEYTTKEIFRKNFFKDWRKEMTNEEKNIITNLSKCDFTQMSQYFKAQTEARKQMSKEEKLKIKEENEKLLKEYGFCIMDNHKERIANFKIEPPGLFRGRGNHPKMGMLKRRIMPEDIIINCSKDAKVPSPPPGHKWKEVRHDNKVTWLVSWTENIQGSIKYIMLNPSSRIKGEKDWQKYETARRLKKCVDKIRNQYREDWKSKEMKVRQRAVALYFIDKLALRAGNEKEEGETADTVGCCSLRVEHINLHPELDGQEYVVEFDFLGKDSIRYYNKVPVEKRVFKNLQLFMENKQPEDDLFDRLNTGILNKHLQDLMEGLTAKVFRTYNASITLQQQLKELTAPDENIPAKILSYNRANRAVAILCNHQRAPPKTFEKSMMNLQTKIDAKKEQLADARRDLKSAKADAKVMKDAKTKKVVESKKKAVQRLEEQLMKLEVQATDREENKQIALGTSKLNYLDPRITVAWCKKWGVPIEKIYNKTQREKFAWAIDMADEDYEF

P388 [7] = assay: Cytotoxicity against mouse P388 cells after 4 days by MTT assay; type: functional, cell-based; conditions: P388, 96 h
P388 [8] = assay: Cytotoxicity against mouse CPT45-resistant topoisomerase 1-deficient P388 cells after 4 days by MTT assay; type: functional, cell-based; conditions: P388, 96 h
MDA-MB-231 [9] = assay: Antitumor activity against human MDA-MB-231 cells xenografted in athymic nude mouse assessed as tumor volume on day 7 at initial dose of 1.0 mg/kg, ip qd X 4/week and dose adjustments were made based upon effect or lack of effect on average body weight (14.6 mg/kg total dose); type: functional; conditions: route intraperitoneal
MDA-MB-231 [10] = assay: Antitumor activity against human MDA-MB-231 cells xenografted in athymic nude mouse assessed as tumor volume on day 31 at initial dose of 2.0 mg/kg, po qd X 4/week and dose adjustments were made based upon effect or lack of effect on average body weight (29.3 mg/kg total dose); type: functional
MDA-MB-231 [11] = assay: Antitumor activity against human MDA-MB-231 cells xenografted in athymic nude mouse assessed as tumor volume on day 31 at initial dose of 1.0 mg/kg, ip qd X 4/week and dose adjustments were made based upon effect or lack of effect on average body weight (14.6 mg/kg total dose); type: functional; conditions: route intraperitoneal
MDA-MB-231 [12] = assay: Antitumor activity against human MDA-MB-231 cells xenografted in athymic nude mouse assessed as tumor volume on day 21 at initial dose of 1.0 mg/kg, ip qd X 4/week and dose adjustments were made based upon effect or lack of effect on average body weight (14.6 mg/kg total dose); type: functional; conditions: route intraperitoneal
MDA-MB-231 [13] = assay: Antitumor activity against human MDA-MB-231 cells xenografted in athymic nude mouse assessed as tumor volume on day 14 at initial dose of 1.0 mg/kg, ip qd X 4/week and dose adjustments were made based upon effect or lack of effect on average body weight (14.6 mg/kg total dose); type: functional; conditions: route intraperitoneal
MDA-MB-231 [14] = assay: Antitumor activity against human MDA-MB-231 cells xenografted in athymic nude mouse assessed as tumor volume on day 7 at initial dose of 2.0 mg/kg, po qd X 4/week and dose adjustments were made based upon effect or lack of effect on average body weight (29.3 mg/kg total dose); type: functional
MDA-MB-231 [15] = assay: Antitumor activity against human MDA-MB-231 cells xenografted in athymic nude mouse assessed as tumor volume on day 14 at initial dose of 2.0 mg/kg, po qd X 4/week and dose adjustments were made based upon effect or lack of effect on average body weight (29.3 mg/kg total dose); type: functional
MDA-MB-231 [16] = assay: Antitumor activity against human MDA-MB-231 cells xenografted in athymic nude mouse assessed as tumor volume on day 21 at initial dose of 2.0 mg/kg, po qd X 4/week and dose adjustments were made based upon effect or lack of effect on average body weight (29.3 mg/kg total dose); type: functional
MDA-MB-231 [17] = assay: Antitumor activity against human MDA-MB-231 cells xenografted in athymic nude mouse assessed as tumor volume on day 31 at initial dose of 3.0 mg/kg, po qd X 5/week for 2 weeks and dose adjustments were made based upon effect or lack of effect on average body weight (72.5 mg/kg total dose); type: functional
MDA-MB-231 [18] = assay: Antitumor activity against human MDA-MB-231 cells xenografted in athymic nude mouse assessed as tumor volume on day 21 at initial dose of 3.0 mg/kg, po qd X 5/week for 2 weeks and dose adjustments were made based upon effect or lack of effect on average body weight (72.5 mg/kg total dose); type: functional
MDA-MB-231 [19] = assay: Antitumor activity against human MDA-MB-231 cells xenografted in athymic nude mouse assessed as tumor volume on day 14 at initial dose of 3.0 mg/kg, po qd X 5/week for 2 weeks and dose adjustments were made based upon effect or lack of effect on average body weight (72.5 mg/kg total dose); type: functional
MDA-MB-231 [20] = assay: Antitumor activity against human MDA-MB-231 cells xenografted in athymic nude mouse assessed as tumor volume on day 14 at initial dose of 2.0 mg/kg, ip qd X 5/week for 2 weeks and dose adjustments were made based upon effect or lack of effect on average body weight (32.5 mg/kg total dose); type: functional; conditions: route intraperitoneal
MDA-MB-231 [21] = assay: Antitumor activity against human MDA-MB-231 cells xenografted in athymic nude mouse assessed as tumor volume on day 21 at initial dose of 2.0 mg/kg, ip qd X 5/week for 2 weeks and dose adjustments were made based upon effect or lack of effect on average body weight (32.5 mg/kg total dose); type: functional; conditions: route intraperitoneal
MDA-MB-231 [22] = assay: Antitumor activity against human MDA-MB-231 cells xenografted in athymic nude mouse assessed as tumor volume on day 7 at initial dose of 2.0 mg/kg, ip qd X 5/week for 2 weeks and dose adjustments were made based upon effect or lack of effect on average body weight (32.5 mg/kg total dose); type: functional; conditions: route intraperitoneal
MDA-MB-231 [23] = assay: Antitumor activity against human MDA-MB-231 cells xenografted in athymic nude mouse assessed as tumor volume on day 7 at initial dose of 3.0 mg/kg, po qd X 5/week for 2 weeks and dose adjustments were made based upon effect or lack of effect on average body weight (72.5 mg/kg total dose); type: functional
MDA-MB-231 [24] = assay: Antitumor activity against human MDA-MB-231 cells xenografted in athymic nude mouse assessed as tumor volume on day 31 at initial dose of 2.0 mg/kg, ip qd X 5/week for 2 weeks and dose adjustments were made based upon effect or lack of effect on average body weight (32.5 mg/kg total dose); type: functional; conditions: route intraperitoneal

Row | Structure (SMILES) | IC50 [1] [nM] | IC50 [2] [nM] | IC50 [3] [nM] | IC50 [4] [nM] | IC50 [5] [nM] | REC [6] | IC50 (P388 [7]) [nM] | IC50 (P388 [8]) [nM] | other results
1 | COc1cc2c(=O)n(CCN(C)C)c3c4cc5c(cc4ncc3c2cc1OC)OCO5 | 900 | 2 | 12 | 5 | 15 | 0.3 | – | – | –
2 | COc1cc2c(=O)n(CCN(C)C)c3c4cc5c(cc4nnc3c2cc1OC)OCO5 | 740 | 2 | 4 | 5 | 4 | 0.3 | 2 | 230 | –
3 | CC[C@@]1(O)C(=O)OCc2c1cc1n(c2=O)Cc2cc3ccccc3nc2-1 [CAMPTOTHECIN] | – | 5 | – | 15 | – | 0.2 | 9 | > 10000 | –
4 | COc1cc2c(=O)n(CCn3ccnc3)c3c4cc5c(cc4nnc3c2cc1OC)OCO5 | > 10000 | 400 | 3300 | 380 | 3300 | 0.1 | 190 | > 10000 | –
5 | COc1cc2c(=O)n(CCN(C)Cc3ccccc3)c3c4cc5c(cc4nnc3c2cc1OC)OCO5 | > 10000 | 40 | 40 | 35 | 85 | 0.4 | 25 | 2800 | –
6 | COc1cc2c(=O)n(CCNC(C)C)c3c4cc5c(cc4nnc3c2cc1OC)OCO5 | 300 | 3 | 2 | 0.5 | 7 | 0.08 | 2 | 110 | Activity (MDA-MB-231 [9]): 72 mm3; Activity (MDA-MB-231 [10]): 253 mm3; Activity (MDA-MB-231 [11]): 231 mm3; Activity (MDA-MB-231 [12]): 150 mm3; Activity (MDA-MB-231 [13]): 112 mm3; Activity (MDA-MB-231 [14]): 82 mm3; Activity (MDA-MB-231 [15]): 92 mm3; Activity (MDA-MB-231 [16]): 185 mm3
7 | COc1cc2c(=O)n(CCN(Cc3ccccc3)C(C)C)c3c4cc5c(cc4nnc3c2cc1OC)OCO5 | 3300 | 45 | 40 | 16 | 75 | 0.5 | 21 | 2300 | –
8 | COc1cc2c(=O)n(CCNC(CO)(CO)CO)c3c4cc5c(cc4nnc3c2cc1OC)OCO5 | 5700 | 65 | 400 | 50 | 280 | 0.2 | 40 | 3000 | –
9 | COc1cc2c(=O)n(CCN(C)CCN(C)C)c3c4cc5c(cc4nnc3c2cc1OC)OCO5 | 2200 | 33 | 250 | 17 | 180 | 0.4 | 19 | 300 | –
10 | CNCCn1c(=O)c2cc(OC)c(OC)cc2c2nnc3cc4c(cc3c21)OCO4 | 230 | 3 | 18 | 0.7 | 23 | 0.03 | 1 | 200 | Activity (MDA-MB-231 [17]): 177 mm3; Activity (MDA-MB-231 [18]): 144 mm3; Activity (MDA-MB-231 [19]): 113 mm3; Activity (MDA-MB-231 [20]): 129 mm3; Activity (MDA-MB-231 [21]): 109 mm3; Activity (MDA-MB-231 [22]): 146 mm3; Activity (MDA-MB-231 [23]): 116 mm3; Activity (MDA-MB-231 [24]): 104 mm3
11 | COc1cc2c(=O)n(CCO)c3c4cc5c(cc4nnc3c2cc1OC)OCO5 | 1300 | 13 | 55 | 10 | 18 | 0.3 | 12 | 700 | –
